Experimental data from patent publication US10787452B2 (Vertex Pharmaceuticals Incorporated, priority 2012, dated 2020).

System: HCT116 colorectal cancer cells
Test: Cisplatin sensitization assay (96 h cell viability MTS);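 note: compound concentration needed to lower the Cisplatin-alone IC50 by a set fold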
Assay type: cell-based
Conditions: 96 h MTS, compound plus Cisplatin
Experimental: Compounds can be screened for their ability to sensitize HCT116 colorectal cancer cells to Cisplatin using a 96 h cell viability (MTS) assay. […] Compounds and Cisplatin are then both added simultaneously to the cell media in 2-fold serial dilutions from a top final concentration of 10 μM as a full matrix of concentrations in a final cell volume of 200 μl, and the cells are then incubated at 37° C. in 5% CO2. After 96 h, 40 μl of MTS reagent (Promega G358a) is added to each well and the cells are incubated for 1 h at 37° C. in 5% CO2.

Q: For `Cc1nnccc1-c1ccncc1NC(=O)c1c(N)nn2cc(F)cnc12` [I-C-31, 2-amino-6-fluoro-N-(4-(3-methylpyridazin-4-yl)pyridin-3-yl)pyrazolo[1,5-a]pyrimidine-3-carboxamide], which “Cisplatin Sensitization Assay” value is on record?
A: +++ (Compounds with a Cisplatin sensitization value of <0.02 μM are marked with “+++.”)

Q: With `Cc1ccnnc1-c1ccncc1NC(=O)c1c(N)nn2cc(F)cnc12` [I-C-33, 2-amino-6-fluoro-N-(4-(4-methylpyridazin-3-yl)pyridin-3-yl)pyrazolo[1,5-a]pyrimidine-3-carboxamide] as the compound, how does the “Cisplatin Sensitization Assay” value read?
A: + (Compounds with a Cisplatin sensitization value >0.2 μM but <5 μM are marked with “+.”)

Q: For `Cc1nc(F)ccc1-c1ccncc1NC(=O)c1c(N)nn2cc(F)cnc12` [I-C-34, 2-amino-6-fluoro-N-(6-fluoro-2-methyl-[3,4′-bipyridin]-3′-yl)pyrazolo[1,5-a]pyrimidine-3-carboxamide], which “Cisplatin Sensitization Assay” value is on record?
A: +++ (Compounds with a Cisplatin sensitization value of <0.02 μM are marked with “+++.”)

Q: `Nc1nn2cc(F)cnc2c1C(=O)Nc1cnccc1-c1cccnc1F` [I-C-35, 2-amino-6-fluoro-N-(2-fluoro-[3,4′-bipyridin]-3′-yl)pyrazolo[1,5-a]pyrimidine-3-carboxamide] was tested. Which “Cisplatin Sensitization Assay” value did it give?
A: +++ (Compounds with a Cisplatin sensitization value of <0.02 μM are marked with “+++.”)

Q: How did the “Cisplatin Sensitization Assay” value turn out when `Cc1cccnc1-c1ccncc1NC(=O)c1c(N)nn2cc(F)cnc12` [I-C-36, 2-amino-6-fluoro-N-(3-methyl-[2,4′-bipyridin]-3′-yl)pyrazolo[1,5-a]pyrimidine-3-carboxamide] was run?
A: +++ (Compounds with a Cisplatin sensitization value of <0.02 μM are marked with “+++.”)

Q: Which “Cisplatin Sensitization Assay” value does the source give for `Nc1nn2cc(F)cnc2c1C(=O)Nc1cnccc1-c1cccnc1Cl` [I-C-37, 2-amino-N-(2-chloro-[3,4′-bipyridin]-3′-yl)-6-fluoropyrazolo[1,5-a]pyrimidine-3-carboxamide] here?
A: +++ (Compounds with a Cisplatin sensitization value of <0.02 μM are marked with “+++.”)

Q: How did the “Cisplatin Sensitization Assay” value turn out when `CN1CCC(C(=O)N2CC=C(c3c(F)cncc3NC(=O)c3c(N)nn4cc(F)cnc34)CC2)CC1` [I-C-38, 2-amino-6-fluoro-N-(5-fluoro-1′-(1-methylpiperidine-4-carbonyl)-1′,2′,3′,6′-tetrahydro-[4,4′-bipyridin]-3-yl)pyrazolo[1,5-a]pyrimidine-3-carboxamide] was run?
A: ++ (Compounds with a Cisplatin sensitization value >0.02 μM but <0.2 μM are marked with “++.”)

Q: With `Cc1nc(C(=O)N2CCN(C)CC2)ccc1-c1ccncc1NC(=O)c1c(N)nn2cc(F)cnc12` [I-C-39, 2-amino-6-fluoro-N-(2-methyl-6-(4-methylpiperazine-1-carbonyl)-[3,4′-bipyridin]-3′-yl)pyrazolo[1,5-a]pyrimidine-3-carboxamide] as the compound, how does the “Cisplatin Sensitization Assay” value read?
A: +++ (Compounds with a Cisplatin sensitization value of <0.02 μM are marked with “+++.”)

Q: With `Cc1nc(N2CCN(C)CC2)ccc1-c1ccncc1NC(=O)c1c(N)nn2cc(F)cnc12` [I-C-40, 2-amino-6-fluoro-N-(2-methyl-6-(4-methylpiperazin-1-yl)-[3,4′-bipyridin]-3′-yl)pyrazolo[1,5-a]pyrimidine-3-carboxamide] as the compound, how does the “Cisplatin Sensitization Assay” value read?
A: +++ (Compounds with a Cisplatin sensitization value of <0.02 μM are marked with “+++.”)

Q: For `Cc1nc(O[C@@H]2CCN(C)C2)ccc1-c1ccncc1NC(=O)c1c(N)nn2cc(F)cnc12` [I-C-41, (R)-2-amino-6-fluoro-N-(2-methyl-6-((1-methylpyrrolidin-3-yl)oxy)-[3,4′-bipyridin]-3′-yl)pyrazolo[1,5-a]pyrimidine-3-carboxamide], which “Cisplatin Sensitization Assay” value is on record?
A: +++ (Compounds with a Cisplatin sensitization value of <0.02 μM are marked with “+++.”)

Q: `Nc1nn2cc(F)cnc2c1C(=O)Nc1cnccc1C1CC1` [I-C-42, 2-amino-N-(4-cyclopropylpyridin-3-yl)-6-fluoropyrazolo[1,5-a]pyrimidine-3-carboxamide] was tested. Which “Cisplatin Sensitization Assay” value did it give?
A: ++ (Compounds with a Cisplatin sensitization value >0.02 μM but <0.2 μM are marked with “++.”)

Q: With `CN1CCN(C(=O)c2ccc(-c3c(F)cncc3NC(=O)c3c(N)nn4cc(F)cnc34)cc2)CC1` [I-C-43, 2-amino-6-fluoro-N-(5-fluoro-4-(4-(4-methylpiperazine-1-carbonyl)phenyl)pyridin-3-yl)pyrazolo[1,5-a]pyrimidine-3-carboxamide] as the compound, how does the “Cisplatin Sensitization Assay” value read?
A: +++ (Compounds with a Cisplatin sensitization value of <0.02 μM are marked with “+++.”)

Q: `Nc1nn2cc(F)cnc2c1C(=O)Nc1cnccc1-c1ccc(C(=O)N2CCNCC2)cc1` [I-C-44, 2-amino-6-fluoro-N-(4-(4-(piperazine-1-carbonyl)phenyl)pyridin-3-yl)pyrazolo[1,5-a]pyrimidine-3-carboxamide] was tested. Which “Cisplatin Sensitization Assay” value did it give?
A: +++ (Compounds with a Cisplatin sensitization value of <0.02 μM are marked with “+++.”)

Q: With `Cc1cc(C(=O)N2CCN(C)CC2)ccc1-c1ccncc1NC(=O)c1c(N)nn2cc(F)cnc12` [I-C-45, 2-amino-6-fluoro-N-(4-(2-methyl-4-(4-methylpiperazine-1-carbonyl)phenyl)pyridin-3-yl)pyrazolo[1,5-a]pyrimidine-3-carboxamide] as the compound, how does the “Cisplatin Sensitization Assay” value read?
A: +++ (Compounds with a Cisplatin sensitization value of <0.02 μM are marked with “+++.”)

Q: How did the “Cisplatin Sensitization Assay” value turn out when `CN1CCN(C(=O)c2cnc(-c3ccncc3NC(=O)c3c(N)nn4cc(F)cnc34)c(Cl)c2)CC1` [I-C-46, 2-amino-N-(3-chloro-5-(4-methylpiperazine-1-carbonyl)-[2,4′-bipyridin]-3′-yl)-6-fluoropyrazolo[1,5-a]pyrimidine-3-carboxamide] was run?
A: + (Compounds with a Cisplatin sensitization value >0.2 μM but <5 μM are marked with “+.”)

Q: With `Nc1nn2cc(F)cnc2c1C(=O)Nc1cnccc1C1CCN(S(=O)(=O)C2CC2)CC1` [I-C-47, 2-amino-N-(4-(1-(cyclopropylsulfonyl)piperidin-4-yl)pyridin-3-yl)-6-fluoropyrazolo[1,5-a]pyrimidine-3-carboxamide] as the compound, how does the “Cisplatin Sensitization Assay” value read?
A: +++ (Compounds with a Cisplatin sensitization value of <0.02 μM are marked with “+++.”)

Q: How did the “Cisplatin Sensitization Assay” value turn out when `Nc1nn2cc(F)cnc2c1C(=O)Nc1cnccc1-c1ccc(C(=O)N2CCN3CCC2CC3)cc1` [I-C-48, N-(4-(4-(1,4-diazabicyclo[3.2.2]nonane-4-carbonyl)phenyl)pyridin-3-yl)-2-amino-6-fluoropyrazolo[1,5-a]pyrimidine-3-carboxamide] was run?
A: +++ (Compounds with a Cisplatin sensitization value of <0.02 μM are marked with “+++.”)

Q: Which “Cisplatin Sensitization Assay” value does the source give for `Nc1nn2cc(F)cnc2c1C(=O)Nc1cnccc1-c1ccc(C(=O)N2CCN(C3COC3)CC2)cc1` [I-C-49, 2-amino-6-fluoro-N-(4-(4-(4-(oxetan-3-yl)piperazine-1-carbonyl)phenyl)pyridin-3-yl)pyrazolo[1,5-a]pyrimidine-3-carboxamide] here?
A: +++ (Compounds with a Cisplatin sensitization value of <0.02 μM are marked with “+++.”)

Q: With `Nc1nn2cc(F)cnc2c1C(=O)Nc1cnccc1-c1ccc(C(=O)N2CCN(C3COC3)CC2)cc1F` [I-C-51, 2-amino-6-fluoro-N-(4-(2-fluoro-4-(4-(oxetan-3-yl)piperazine-1-carbonyl)phenyl)pyridin-3-yl)pyrazolo[1,5-a]pyrimidine-3-carboxamide] as the compound, how does the “Cisplatin Sensitization Assay” value read?
A: ++ (Compounds with a Cisplatin sensitization value >0.02 μM but <0.2 μM are marked with “++.”)
